The source of these data is patent US20230286969A1, “AROMATIC SPIRO RING AMIDE DERIVATIVES FOR THE TREATMENT AND PROPHYLAXIS OF HEPATITIS B VIRUS INFECTION” (Hoffmann-La Roche Inc., priority 2020, published 2023).

Molecules are shown by their SMILES. Read-outs that look alike come from different tables or passages of the source. Where only a bound is given, the exact number is not on record here.

Common to all, as to assay type: cell-based
One data set relates to HBeAg. The data set is described as follows: PHH HBV natural infection assay, HBeAg (alphalisa). On the procedure:
(§1) Detailed procedures regarding primary human hepatocyte (PHH) HBV natural infection assay are described as below. One tube of frozen PHH (10 million cells) is thawed in 37° C. water bath and then transferred to 20 mL of PHH thawing medium (Sigma, InVitroGRO HT Medium, Cat. S03319) with gently mixing. The cells were then centrifuged at […] for 5 min, the supernatant was discarded and the tube was refilled with 25 mL of PHH plating medium (Sigma, InVitroGRO CP Medium, Cat. S03317). The tube was shaken very gently to re-suspend all cells, and then 50 μl of cells were transferred to each well 384-well collagen I coated plate with appropriate liquid handling equipment, e.g. Integra VIAFLO384 or Agilent Bravo. The cells were then cultured for 24 hours in a cell incubator. For HBV infection, after PHH attachment on the culture plate, the plating medium was removed and replenished with PHH culture medium containing HBV virus. The PHH culture medium was prepared with Dulbecco's Modified Eagle Medium (DMEM)/F12 (1:1 in volume ratio) containing 10% fetal bovine serum (Gibco, Cat. 10099141), 5 ng/mL human epidermal growth factor (Gibco, Cat.PHG0311L), 20 ng/mL dexamethasone (Sigma, Cat.D4902-100 mg), 250 ng/mL human recombinant insulin (Gibco, Cat.41400045) and 100 U/mL penicillin. HBV virus at 200 genome equivalent (GE) per cell with 4% PEG8000 (Sigma, Cat.P1458) containing culture medium were added to the PHH culture medium for infection. The cells were then cultured for 24 hours in cell incubator. Then the cell culture supernatant was removed. The HBV-infected PHH were cultured with sandwich culture method with PHH culture medium containing 1% DMSO and 0.25 mg/mL matrix gel for 72 hours. The supernatant was then refreshed with PHH culture medium containing different concentrations of testing compounds for two times with 72-hour interval. At the end of treatment, the supernatant was collected for viral markers measurements, including HBsAg, HBeAg, HBV DNA and cytotoxicity. HBsAg and HBeAg were detected using alphalisa method using their specific antibodies. For HBV DNA detection, HBV DNA Quantitative Fluorescence Diagnostic Kit (Sansure Biotech Inc.) was used following the manufacture's protocol. Cytotoxicity was determined using Cell Counting Kit-8 (CCK8, Dojindo Molecular Technologies, Inc.).
(§2) The compounds of the present invention were tested for their capacity to inhibit HBsAg and HBeAg as described herein.
In general terms: Alpha assays give light when donor and acceptor beads are brought close together.

A short description of data set [1]: PHH natural infection assay, cytotoxicity (Cell Counting Kit-8). To be noted: human, HBV-infected primary human hepatocytes, CCK8, end of treatment. On the procedure: as §1
On the technique in general: Tetrazolium assays rely on reduction of a dye to a coloured formazan, in cell work by metabolically active cells.

The next data set has as its system HBsAg. The data set is described as follows: PHH HBV natural infection assay, HBsAg (alphalisa). On the procedure:
as §1, §2

The mark [2] stands for this setting: read-out: HbeAg IC50, HBV-infected primary human hepatocytes, supernatant, compound medium refreshed two times with 72-hour interval.
Where [3] appears, read: read-out: HBsAg IC50, HBV-infected primary human hepatocytes, supernatant, compound medium refreshed two times with 72-hour interval.
[4] abbreviates: Hepatitis B virus, Hepatocyte, 72 h, read-out: HbeAg IC50, HBV-infected primary human hepatocytes, supernatant, compound medium refreshed two times with 72-hour interval.
The mark [5] stands for this setting: Hepatitis B virus, Hepatocyte, 72 h, read-out: HBsAg IC50, HBV-infected primary human hepatocytes, supernatant, compound medium refreshed two times with 72-hour interval.

In general, IC50 refers to the point on the concentration scale where inhibition reaches its midpoint. For orientation: CC50 means the concentration that lowers cell viability or growth by half. Low values mean greater toxicity to the cells, high ones lower toxicity to the cells. For `[H][C@]1(NC(=O)c2ccc(S(C)(=O)=O)o2)C[C@]2(C1)C[C@]([H])(c1nc3cc(Cl)ccc3o1)C2` (single isomer, unassigned) [Example 15-b, (Ra)—N-[6-(5-chloro-1,3-benzoxazol-2-yl)spiro[3.3]heptan-2-yl]-5-methylsulfonyl-furan-2-carboxamide], the concentration for half-maximal inhibition (IC50) in the data set with HBeAg (setting [2]) was found to be 0.694 µM; in the data set with HBsAg (setting [3]) it was 0.896 µM. For the same compound, the midpoint of cytotoxicity in data set [1], the CC50 at 144 h, lay at 35.8 µM.

As for `O=C(NC1CC2(C1)CC(c1nc3cc(Cl)ccc3o1)C2)c1ccc(SC(F)(F)F)o1` (stereo not drawn) [Example 41, N-[6-(5-chloro-1,3-benzoxazol-2-yl)spiro[3.3]heptan-2-yl]-5-(trifluoromethylsulfanyl)furan-2-carboxamide], the IC50 with HBeAg (setting [4]) came out at 6.62 µM; in the data set on HBsAg (setting [5]) it was 8.47 µM. This compound also showed a CC50 at 144 h in data set [1] of over 100 µM.

For `O=C(NC1CC2(C1)CC(c1nc3ccc(Cl)cc3o1)C2)c1ccc(C(F)(F)F)o1` (stereo not drawn) [Example 46, N-[6-(6-chloro-1,3-benzoxazol-2-yl)spiro[3.3]heptan-2-yl]-5-(trifluoromethyl)furan-2-carboxamide], the IC50 was 2.81 µM in the data set with HBeAg (setting [4]) and 5.83 µM in the data set on HBsAg (setting [5]). The midpoint of cytotoxicity in data set [1], the CC50 at 144 h, lay at 89.8 µM.

Consider `[H][C@]1(NC(=O)c2ccc(S(C)(=O)=O)o2)C[C@@]2(C1)C[C@]([H])(c1nc3cc(Cl)ccc3o1)C2` (single isomer, unassigned) [Example 15-a, (Sa)—N-[6-(5-chloro-1,3-benzoxazol-2-yl)spiro[3.3]heptan-2-yl]-5-methylsulfonyl-furan-2-carboxamide], for which the 50% inhibitory concentration (IC50) worked out at 3.94 µM in the data set with HBeAg (setting [2]) and 5.19 µM in the data set with HBsAg (setting [3]). The compound also returned a CC50 at 144 h in data set [1] of 84 µM.

As for `CCOC(=O)NS(=O)(=O)c1ccc(C(=O)N[C@H]2CC3(C2)C[C@H](c2nc4cc(Cl)ccc4o2)C3)o1` (single isomer, unassigned) [Example 74, (Sa)-ethyl N-[[5-[[6-(5-chloro-1,3-benzoxazol-2-yl)spiro[3.3]heptan-2-yl]carbamoyl]-2-furyl]sulfonyl]carbamate, or (Ra)-ethyl N-[[5-[[6-(5-chloro-1,3-benzoxazol-2-yl)spiro[3.3]heptan-2-yl]carbamoyl]-2-furyl]sulfonyl]carbamate], the half-inhibitory concentration (IC50) in the data set on HBeAg (setting [4]) worked out at 5.92 µM; in the data set with HBsAg (setting [5]), 6.67 µM. This compound displayed a CC50 at 144 h in data set [1] of over 10 µM.

Take `CC(C)(C)[S+]([O-])c1ccc(C(=O)NC2CC3(C2)CC(c2nc4cc(Cl)ccc4o2)C3)o1` (stereo not drawn) [Example 38, 5-tert-butylsulfinyl-N-[6-(5-chloro-1,3-benzoxazol-2-yl)spiro[3.3]heptan-2-yl]furan-2-carboxamide]: the IC50 with HBeAg (setting [4]) stood at 0.317 µM; with HBsAg (setting [5]), 0.526 µM. In data set [1], this compound gave a cytotoxic concentration (CC50) at 144 h of 96.3 µM.

For `Cn1cc(C(=O)NC2CC3(C2)CC(c2nc4cc(Cl)ccc4o2)C3)cn1` (stereo not drawn) [Example 13, N-[6-(5-chloro-1,3-benzoxazol-2-yl)spiro[3.3]heptan-2-yl]-1-methyl-pyrazole-4-carboxamide], the concentration for half-maximal inhibition (IC50) with HBeAg (setting [4]) is 6.2 µM; with HBsAg (setting [5]) it was 9.81 µM. This compound displayed a CC50 at 144 h in data set [1] of over 100 µM.

In the case of `O=C(NC1CC2(C1)CC(c1nc3cc(Cl)ccc3o1)C2)c1ccc(S(=O)(=O)NC(=O)C2CCCCC2)o1` (stereo not drawn) [Example 82, N-[6-(5-chloro-1,3-benzoxazol-2-yl)spiro[3.3]heptan-2-yl]-5-(cyclohexanecarbonylsulfamoyl)furan-2-carboxamide], the IC50 was 0.224 µM in the data set with HBeAg (setting [4]) and 0.461 µM in the data set on HBsAg (setting [5]). Also, it took 85.7 µM to reach half-maximal cytotoxicity in data set [1] (CC50 at 144 h).

For the compound `O=C(NC1CC2(C1)CC(c1nc3cc(Cl)ccc3o1)C2)c1ccc(S(=O)(=O)CC2COC2)o1` (stereo not drawn) [Example 24, N-[6-(5-chloro-1,3-benzoxazol-2-yl)spiro[3.3]heptan-2-yl]-5-(oxetan-3-ylmethylsulfonyl)furan-2-carboxamide], the half-inhibitory concentration (IC50) with HBeAg (setting [4]) is 2.33 µM; in the data set on HBsAg (setting [5]) it was 2.44 µM. Besides, the 50% cytotoxic concentration (CC50) at 144 h in data set [1] worked out at 95.3 µM.

With `COC(=O)CCC(=O)NS(=O)(=O)c1ccc(C(=O)N[C@H]2CC3(C2)C[C@H](c2nc4cc(Cl)ccc4o2)C3)o1` (single isomer, unassigned) [Example 75, (Sa)-methyl 4-[[5-[[6-(5-chloro-1,3-benzoxazol-2-yl)spiro[3.3]heptan-2-yl]carbamoyl]-2-furyl]sulfonylamino]-4-oxo-butanoate, or (Ra)-methyl 4-[[5-[[6-(5-chloro-1,3-benzoxazol-2-yl)spiro[3.3]heptan-2-yl]carbamoyl]-2-furyl]sulfonylamino]-4-oxo-butanoate], the values for the IC50 in the data set with HBeAg (setting [4]) and with HBsAg (setting [5]) were 1.69 µM and 2.49 µM, respectively. Also, in data set [1], the CC50 at 144 h is over 10 µM.

Take `NS(=O)(=O)NCc1ccc(C(=O)NC2CC3(C2)CC(c2nc4cc(Cl)ccc4o2)C3)o1` (stereo not drawn) [Example 35, N-[6-(5-chloro-1,3-benzoxazol-2-yl)spiro[3.3]heptan-2-yl]-5-[(sulfamoylamino)methyl]furan-2-carboxamide]: the values for the IC50 with HBeAg (setting [4]) and with HBsAg (setting [5]) were 6.53 µM and 7.81 µM, respectively. The compound also returned a CC50 at 144 h in data set [1] of 98.3 µM.

Take `O=C(NC1CC2(C1)CC(c1nc3cc(Cl)ccc3o1)C2)c1ccc([S+]([O-])C(F)(F)F)o1` (stereo not drawn) [Example 42, N-[6-(5-chloro-1,3-benzoxazol-2-yl)spiro[3.3]heptan-2-yl]-5-(trifluoromethylsulfinyl)furan-2-carboxamide]: the values for the concentration for half-maximal inhibition (IC50) in the data set with HBeAg (setting [4]) and in the data set with HBsAg (setting [5]) were 1.41 µM and 1.52 µM, respectively. In addition, the CC50 at 144 h in data set [1] was determined as 96.2 µM.

With `O=C(NC1CC2(C1)CC(c1nc3cc(Cl)ccc3o1)C2)c1ccc(S(=O)(=O)C2COC2)o1` (stereo not drawn) [Example 18, N-[6-(5-chloro-1,3-benzoxazol-2-yl)spiro[3.3]heptan-2-yl]-5-(oxetan-3-ylsulfonyl)furan-2-carboxamide], the 50% inhibitory concentration (IC50) in the data set on HBeAg (setting [4]) worked out at 1.81 µM; in the data set on HBsAg (setting [5]), 3.27 µM. In data set [1], this compound gave a CC50 at 144 h of 72.1 µM.

Regarding `O=C(NC1CC2(C1)CC(c1nc3cc(Cl)ccc3o1)C2)c1ccc(CS(=O)(=O)C2CC2)o1` (stereo not drawn) [Example 31, N-[6-(5-chloro-1,3-benzoxazol-2-yl)spiro[3.3]heptan-2-yl]-5-(cyclopropylsulfonylmethyl)furan-2-carboxamide], the IC50 with HBeAg (setting [4]) worked out at 6.98 µM; in the data set with HBsAg (setting [5]), 7.56 µM. This compound also gave a CC50 at 144 h in data set [1] of over 100 µM.

Consider `CN(C)S(=O)(=O)c1ccc(C(=O)NC2CC3(C2)CC(c2nc4cc(Cl)ccc4o2)C3)o1` (stereo not drawn) [Example 89, N-[6-(5-chloro-1,3-benzoxazol-2-yl)spiro[3.3]heptan-2-yl]-5-(dimethylsulfamoyl)furan-2-carboxamide], for which the IC50 with HBeAg (setting [4]) was 0.723 µM; with HBsAg (setting [5]) it was 1.04 µM. Further, the cytotoxic concentration (CC50) at 144 h in data set [1] was over 10 µM.

In the case of `COCCOCC(=O)NS(=O)(=O)c1ccc(C(=O)N[C@H]2CC3(C2)C[C@H](c2nc4cc(Cl)ccc4o2)C3)o1` (single isomer, unassigned) [Example 78, (Sa)—N-[6-(5-chloro-1,3-benzoxazol-2-yl)spiro[3.3]heptan-2-yl]-5-[[2-(2-methoxyethoxy)acetyl]sulfamoyl]furan-2-carboxamide, or (Ra)—N-[6-(5-chloro-1,3-benzoxazol-2-yl)spiro[3.3]heptan-2-yl]-5-[[2-(2-methoxyethoxy)acetyl]sulfamoyl]furan-2-carboxamide], the IC50 in the data set with HBeAg (setting [4]) was 0.929 µM; in the data set on HBsAg (setting [5]), 2.45 µM. The same compound yielded a cytotoxic concentration (CC50) at 144 h in data set [1] of over 100 µM.

Turning to `COCCS(=O)(=O)c1ccc(C(=O)NC2CC3(C2)CC(c2nc4cc(Cl)ccc4o2)C3)o1` (stereo not drawn) [Example 28, N-[6-(5-chloro-1,3-benzoxazol-2-yl)spiro[3.3]heptan-2-yl]-5-(2-methoxyethylsulfonyl)furan-2-carboxamide], the 50% inhibitory concentration (IC50) in the data set with HBeAg (setting [4]) worked out at 0.509 µM; in the data set on HBsAg (setting [5]) it was 0.758 µM. The compound further displayed a 50% cytotoxic concentration (CC50) at 144 h in data set [1] of 94.2 µM.

On to `CS(=N)(=O)c1ccc(C(=O)NC2CC3(C2)CC(c2nc4cc(Cl)ccc4o2)C3)o1` (stereo not drawn) [Example 52, N-[6-(5-chloro-1,3-benzoxazol-2-yl)spiro[3.3]heptan-2-yl]-5-(methylsulfonimidoyl)furan-2-carboxamide], for which the half-inhibitory concentration (IC50) came to 1.2 µM in the data set on HBeAg (setting [4]) and 1.7 µM with HBsAg (setting [5]). Moreover, it took 72 µM to reach half-maximal cytotoxicity in data set [1] (CC50 at 144 h).
